Assay results reported in a melting point compilation (Tetko et al.; mined from patent text by program, amines drawn as free bases though some values may be those of a salt).

Row | SMILES | melting point [°C]
1 | CN1C(=S)Nc2ccncc2S1(=O)=O | 195 to 198
2 | O=[N+]([O-])c1cccc(-c2ccc3c(n2)[nH]c2ccccc23)c1 | 185
3 | FC(F)(F)Oc1ccc(C2NCCc3c2[nH]c2ccccc32)cc1 (stereo unspecified) | 68 to 69
4 | N#Cc1cnc2cnc(F)cc2c1Nc1cccc(Br)c1 | 185 to 195
5 | COC(=O)C(Sc1ccc(Cl)cc1)c1ccc(Oc2ccccc2)cc1 (stereo unspecified) | 66 to 67.5
6 | O=C(COc1ccc(Cl)cc1)N1CCc2occc2C1CN1CCC(O)C1 (stereo unspecified) | 43 to 45
7 | COc1cc(C)c2cc(C(C)O)ccc2c1C (stereo unspecified) | 78
8 | O=C(O)CCCCCc1nc2c(F)c(F)cc(F)c2s1 | 84 to 86
9 | COC(=O)c1ccc(COC2OC(CO)C(O)C(O)C2O)o1 (stereo unspecified) | 72
10 | N#Cc1cccc(N(C(=O)NC2CCN(Cc3ccccc3)CC2)C2CCCC2)c1 | 165 to 166
11 | O=C(CNC(=O)OCc1ccccc1)NCCCCCCO | 104 to 105
12 | CCOC(=S)NC1(N=NC(C)(C)C)CCCCC1 | 57 to 62
13 | COc1ccc(S(=O)(=O)C2(C(=O)O)CCN(CC=C(C)C)CC2)cc1 | 142 to 145
14 | Cc1ccc(S(=O)(=O)Nc2nc(-c3cccc(C#N)c3)cs2)cc1 | > 250
15 | Cc1nccn1CCCNC(=O)c1cccc2oc(-c3ccccc3)nc12 | 145 to 148
16 | COCCOc1ccc(CCC2(O)CN3CCC2CC3)cc1 (stereo unspecified) | 116 to 117
17 | O=C(N[C@H]1CC[C@H](CCN2CCN(c3nccc4c3CCO4)CC2)CC1)c1cnc(N2CCOCC2)cn1 | 192
18 | CN(C)S(=O)(=O)c1cc(N=C=O)ccc1Cl | 82 to 85
19 | CCCCc1oc2ccccc2c1-c1ncc(-c2ccc3c(Br)c(OCC#N)ccc3c2)o1 | 144 to 146
20 | N#Cc1cnc2sc(Br)cc2c1Cl | 158 to 166
21 | CC(C)CN(Cc1nc(-c2ncn3c2[C@@H]2CCN2C(=O)c2c(Cl)cccc2-3)no1)CC(C)C | 125 to 140
22 | Cc1cc2cnnc(Cl)c2n1Cc1ccccc1 | 152 to 156
23 | CCOC(Cc1ccc(OCCN2CCSc3ccccc32)cc1)C(=O)NCc1ccccc1 (stereo unspecified) | 92 to 93
24 | Cc1cc(C#N)cc(C)c1Oc1nc(Nc2ccc(C#N)cc2)nc(N)c1Br | 271
25 | COc1ccc(OC)c2c1C[C@@H](O)[C@H](NC(C)C)C2 (relative stereo) | 144 to 145
26 | O=C(NCCO)/C(=C/c1ccc(OC(F)F)cc1)NC(=O)c1ccc(OCCc2ccccc2)cc1 | 155 to 157
27 | CN1N=C(Br)C2N=C(Cl)N=C(O)C21 (stereo unspecified) | 260 to 262
28 | COc1ccc(CN([C@@H](CO)c2ccccc2)S(=O)(=O)c2ccc(Cl)cc2)cc1C(=O)O | 79 to 80

Continued, values first:

Row | melting point [°C] | SMILES
29 | 206 to 207 | CC1CN(c2c(F)cc3c(=O)c(C(=O)O)cn4c3c2OCC4C)CC1NC(=O)OC(C)(C)C (stereo unspecified)
30 | 145 to 147 | CCOC(=O)c1c(-c2ccc(F)cc2)c2ccsc2c(=O)n1C
31 | 126 to 127 | COc1cccc(OC2CN([C@H]3CC[C@@H](c4cc5ccccc5[nH]4)CC3)C2)c1
32 | 130 to 131 | O=C1CCN2C(=O)OCc3cccc1c32
33 | 225 to 229 | NC(=O)c1c(Cl)c(-c2ccccc2)n2c1CN(C(=O)Cc1cccs1)CC2
34 | 123 to 124 | CN1CCC2(CC1)OC(c1ccccc1)c1ccccc12 (stereo unspecified)
35 | 180 to 182 | O=c1[nH]c(=O)n(CCCCBr)c2cc(Cl)ccc12
36 | > 250 | c1ccc(-c2cccc3[nH]c4c(c23)CCNCC4)cc1
37 | 137 to 138 | CCN(CC)CCC1CCN(C(=O)N2c3ccccc3C(=O)Nc3cccnc32)C1 (stereo unspecified)
38 | 195 to 197 | Cc1nc(N2CCN(Cc3ccc(C(F)(F)F)cc3)C2=O)sc1C(=O)O
39 | 112 | CCCCN1CCC(CNC(=O)c2cc(Cl)cc3c2OCCO3)C(O)C1 (stereo unspecified)
40 | 120 to 123 | CC(C(=O)O)c1ccc(-c2ccccc2F)c(F)c1 (stereo unspecified)
41 | 146 to 148 | CCOCc1nc2c(N)nc3ccccc3c2n1CCCC(C)N(OC)S(C)(=O)=O (stereo unspecified)
